One test deals with normal human plasma. The test can be described thus: Anticoagulant activity, partial thromboplastin time (APTT) assay. To be noted: for Anticoagulation Activity (APTT) Relative to Heparin: ratio>1 indicates weaker activity relative to heparin on a μg/mL basis. The method, then:
The anticlotting activity of the compounds of this invention were evaluated in a partial thromboplastin time (APTT) assay using normal human plasma collected from 5 donors using the procedure of Fenichel et. al. (Clin. Chem. 1964, 10, 69). A BBL Fibrometer automatic precesion coagulation timer utilizing a 0.3 ml probe was employed. An Ellagic acid activated partial thromboplastin was used for these experiments. This reagent is added to human citrated plasma equilibrated at 37° C. in a plastic well in the clot timer. Calcium at 37° C. is added, the clot timer is started and the time for fibrin clot formation (in seconds) was recorded. The effect of the compounds, added to plasma, over a concentration of 12.5-200 μg/mL was determined. […] An unfractionated heparin comparator was used over the concentration range of 1.25-10 μg/mL. Clotting tests at all concentrations were run in triplicate. Analysis of variance for a randomized block design was used to determine the significance of differences observed in the clotting times. The potency is reported relative to heparin wherein ratio>1 indicates weaker activity relative to heparin on a μg/mL basis.

For test [1], the system named is common carotid artery, intimal thickening. The test can be described thus: Experimental model of restenosis (air-dried carotid artery), intimal thickening. Format: in vivo, Male Sprague-Dawley Rats. The settings on record: in comparison to untreated animals; dose of 125 μg/mL, i.v. osmotic pump, 2 weeks. The source says:
Male Sprague-Dawley Rats weighing between 0.3-0.4 kg were housed in polycarbonate cages (2 per box) with corn cob bedding and provided with Purina 5001 rat chow and water (ad. lib. A 12 hr/12 hr light: dark cycle was maintained with light on at 7:00 A.M). After acclimation, rats were randomly assigned to treatment groups (12 per group). The rats were anesthetized with Ketamine, Acepromazone, and Xylazine. The anterior portion of the neck was shaved, a 3 cm incision was made along the midline, and the trachea was exposed by gently parting the underlying tissues and muscle. A retractor was inserted to hold the muscles and tissues aside and the common carotid artery was isolated from the surrounding tissue. A 2 cm segment of the right common carotid artery was lifted such that an 11 mm approximator was placed on the vessel at about […] before the bifurcation of the internal and external branches of the carotid artery. The 5 mm segment of the common carotid artery between the clamps of the approximator was punctured at about 0.5 mm from the edge of each clamp with a 30 G needle and a gentle stream of isotonic saline was injected through the isolated segment to flush out any blood. […]
Two weeks following surgery, the rats were sacrificed via anesthetized exsanquination. […] The cross sections were photographed and the arterial media and intima were digitized and measured. […]

For test [2], the system named is human aortic endothelial cells. The test can be described thus: Effect on human endothelial cell growth. Format: cell-based. To be noted: driven by 2% FBS, at doses inhibitory towards human smooth muscle cell proliferation driven by 10% FBS (FIG. 1). On the procedure:
The ability of the compounds of the present invention to inhibit smooth muscle cell proliferation and modulate endothelial cell growth was established using isolated aortic cells obtained from commercial sources or, for certain species, prepared in-house. Cell lines used in this study include human and porcine aortic smooth muscle cells and human aortic endothelial cells. Human aortic cell lines were obtained from Clonetics Corporation (San Diego).
Cells were assayed in early passage (generally passage 3-7) at sub-confluent conditions. Cultures were grown in 16 mm (24 well) multi-well culture dishes in media 199 supplemented with 10% fetal bovine serum and 2% antibiotic/antimycotic. At sub-confluence, the cells were placed in a defined serum free medium (AIM-V; Gibco) for 24-48 h prior to initiating the experimental protocol.
Growth factor and serum stimulations were optimized for each cell type.
Compounds were added to each well at 50 fold dilution (20 μL/well) and the plates were incubated for 24-36 h at 37° C. in 5% CO2. […] Compounds were routinely assayed at 1, 10, and 100 μM. […]
Data was obtained, in triplicate, for both control and experimental samples. […] Data was expressed as a percent of control from which IC50 s could be determined. […]

The next test has as its system restenosis. To be noted: prior art; cited from earlier work.
The subject of a further test is smooth muscle cell. To be noted: prior art; cited from earlier work.

Counter-ions that a name gives are not always drawn.

Consider `Cc1ccc(CO[C@@H]2O[C@H](COS(=O)(=O)O)[C@@H](O[C@@H]3O[C@H](COS(=O)(=O)O)[C@@H](OS(=O)(=O)O)[C@H](OS(=O)(=O)O)[C@H]3OS(=O)(=O)O)[C@H](OS(=O)(=O)O)[C@H]2OS(=O)(=O)O)cc1NC(=O)c1cc(C(=O)Nc2cc(CO[C@@H]3O[C@H](COS(=O)(=O)O)[C@@H](O[C@@H]4O[C@H](COS(=O)(=O)O)[C@@H](OS(=O)(=O)O)[C@H](OS(=O)(=O)O)[C@H]4OS(=O)(=O)O)[C@H](OS(=O)(=O)O)[C@H]3OS(=O)(=O)O)ccc2C)cc(C(=O)Nc2cc(CO[C@@H]3O[C@H](COS(=O)(=O)O)[C@@H](O[C@@H]4O[C@H](COS(=O)(=O)O)[C@@H](OS(=O)(=O)O)[C@H](OS(=O)(=O)O)[C@H]4OS(=O)(=O)O)[C@H](OS(=O)(=O)O)[C@H]3OS(=O)(=O)O)ccc2C)c1` [Example 9, Benzene-1,3,5-tricarboxylic Acid Tris{[2-methyl-5-(hepta-O-sulfato-β-cellobiosyloxymethyl)phenyl]amide}Heneicosasodium Salt], for which the “Anticoagulation Activity (APTT), in words” value with normal human plasma (at 25-200 μg/mL) is recorded as “no signifcant”.
Regarding `O=C(Nc1cc(CO[C@@H]2O[C@H](COS(=O)(=O)O)[C@@H](O[C@@H]3O[C@H](COS(=O)(=O)O)[C@@H](OS(=O)(=O)O)[C@H](OS(=O)(=O)O)[C@H]3OS(=O)(=O)O)[C@H](OS(=O)(=O)O)[C@H]2OS(=O)(=O)O)ccc1Cl)c1cc(C(=O)Nc2cc(CO[C@@H]3O[C@H](COS(=O)(=O)O)[C@@H](O[C@@H]4O[C@H](COS(=O)(=O)O)[C@@H](OS(=O)(=O)O)[C@H](OS(=O)(=O)O)[C@H]4OS(=O)(=O)O)[C@H](OS(=O)(=O)O)[C@H]3OS(=O)(=O)O)ccc2Cl)cc(C(=O)Nc2cc(CO[C@@H]3O[C@H](COS(=O)(=O)O)[C@@H](O[C@@H]4O[C@H](COS(=O)(=O)O)[C@@H](OS(=O)(=O)O)[C@H](OS(=O)(=O)O)[C@H]4OS(=O)(=O)O)[C@H](OS(=O)(=O)O)[C@H]3OS(=O)(=O)O)ccc2Cl)c1` [Example 11], the “inhibition of intimal thickening” value in test [1] is reported as 50%. For the same molecule, the “human endothelial cell growth” value in test [2] is “enhance human endothelial cell growth”. Also, the “Anticoagulation Activity (APTT) Relative to Heparin” value with normal human plasma stood at 72.
With `O=C(Nc1cc(CO[C@@H]2O[C@H](COS(=O)(=O)O)[C@@H](O[C@@H]3O[C@H](COS(=O)(=O)O)[C@@H](OS(=O)(=O)O)[C@H](OS(=O)(=O)O)[C@H]3OS(=O)(=O)O)[C@H](OS(=O)(=O)O)[C@H]2OS(=O)(=O)O)cc(CO[C@@H]2O[C@H](COS(=O)(=O)O)[C@@H](O[C@@H]3O[C@H](COS(=O)(=O)O)[C@@H](OS(=O)(=O)O)[C@H](OS(=O)(=O)O)[C@H]3OS(=O)(=O)O)[C@H](OS(=O)(=O)O)[C@H]2OS(=O)(=O)O)c1)c1cc(C(=O)Nc2cc(CO[C@@H]3O[C@H](COS(=O)(=O)O)[C@@H](O[C@@H]4O[C@H](COS(=O)(=O)O)[C@@H](OS(=O)(=O)O)[C@H](OS(=O)(=O)O)[C@H]4OS(=O)(=O)O)[C@H](OS(=O)(=O)O)[C@H]3OS(=O)(=O)O)cc(CO[C@@H]3O[C@H](COS(=O)(=O)O)[C@@H](O[C@@H]4O[C@H](COS(=O)(=O)O)[C@@H](OS(=O)(=O)O)[C@H](OS(=O)(=O)O)[C@H]4OS(=O)(=O)O)[C@H](OS(=O)(=O)O)[C@H]3OS(=O)(=O)O)c2)cc(C(=O)Nc2cc(CO[C@@H]3O[C@H](COS(=O)(=O)O)[C@@H](O[C@@H]4O[C@H](COS(=O)(=O)O)[C@@H](OS(=O)(=O)O)[C@H](OS(=O)(=O)O)[C@H]4OS(=O)(=O)O)[C@H](OS(=O)(=O)O)[C@H]3OS(=O)(=O)O)cc(CO[C@@H]3O[C@H](COS(=O)(=O)O)[C@@H](O[C@@H]4O[C@H](COS(=O)(=O)O)[C@@H](OS(=O)(=O)O)[C@H](OS(=O)(=O)O)[C@H]4OS(=O)(=O)O)[C@H](OS(=O)(=O)O)[C@H]3OS(=O)(=O)O)c2)c1` [Example 14, Benzene-1,3,5-tricarboxylic Acid Tris{[3,5-bis-(hepta-O-sulfato-β-D-cellobiosyloxymethyl)phenyl]amide}Tetratetracontasodium Salt], the “Anticoagulation Activity (APTT) Relative to Heparin” value in the test with normal human plasma worked out at 3.1.
On to Beta-Cyclodextrin tetradecasulfate, for which, in the test with restenosis, the “inhibition of restenosis (literature)” value is recorded as “effective inhibitor of restenosis”. In the test with smooth muscle cell, the “SMC proliferation inhibition (literature)” value is reported as “smooth muscle cell proliferation inhibitor”.
